# Measurements published in patent US6316414A, “Somatostatin analogs for the treatment of cancer” (Dabur Research Foundation, priority 2000, dated 2001).
# Test system: human colon adenocarcinoma (PTC) xenografts
# Assay: In vivo antitumor activity on PTC xenografts in nude mice
# Set-up: species or system Balb/c athymic mice
# Details: for percentage inhibition of tumor growth as compared to controls: 8.5 μg/100 μl intravenously twice a day for 10 days
# Method: The antitumor activity of SEQ ID NO:2 and SEQ ID NO:3 was studied in human colon adenocarcinoma (PTC) xenografts in nude mice. PTC tumor xenografts were grown in Balb/c athymic mice by subcutaneous inoculation of a single cell suspension of PTC cells (15×10^6 cells/100 μl). The tumor bearing animals were divided into 3 groups of three animals each including one group comprising untreated control animals. Treatment with novel somatostatin analogs was initiated when the average tumor volumes, as measured using a vernier caliper, were between 400-800 mm^3. Solutions of SEQ ID NO:2 and SEQ ID NO:3 were prepared at a concentration of 85 μg/ml and intravenously administered to the assigned group of tumor bearing animals at a dose of 8.5 μg/100 μl twice a day so that the total dose of […] was administered to each animal. The treatment was continued for a period of 10 days.
# The antitumor activity of the compounds was monitored by measuring tumor volumes every fourth day using the formula W*W*L*[…] (W=smaller diameter, L=larger diameter). The percentage inhibition of tumor growth was calculated using the formula (1-tumor volume-treated/tumor volume control)* 100.
# [1] = day 0, average of three animals
# [2] = day 9, average of three animals
# [3] = day 13, average of three animals
# [4] = day 18, average of three animals
# [5] = day 21, average of three animals
substance,measurement,setting,value
D-Phe-Cys-Tyr-D-Trp-Orn-Ac5c-Pen-Thr-NH2 [SEQ ID NO: 3],"tumor volume, individual animal","animal I, day 0",0 mm^3
same,"tumor volume, individual animal","animal I, day 9",560 mm^3
same,"tumor volume, individual animal","animal I, day 13",1946 mm^3
same,"tumor volume, individual animal","animal I, day 18",3177 mm^3
same,"tumor volume, individual animal","animal I, day 21",0 mm^3
same,"tumor volume, individual animal","animal II, day 0",0 mm^3
same,"tumor volume, individual animal","animal II, day 9",774 mm^3
same,"tumor volume, individual animal","animal II, day 13",1800 mm^3
same,"tumor volume, individual animal","animal II, day 18",3610 mm^3
same,"tumor volume, individual animal","animal II, day 21",4939 mm^3
same,"tumor volume, individual animal","animal III, day 0",0 mm^3
same,"tumor volume, individual animal","animal III, day 9",324 mm^3
same,"tumor volume, individual animal","animal III, day 13",1530 mm^3
same,"tumor volume, individual animal","animal III, day 18",4234 mm^3
same,"tumor volume, individual animal","animal III, day 21",7301 mm^3
same,"tumor volume, Avg",[1],0 mm^3
same,"tumor volume, Avg",[2],552 mm^3
same,"tumor volume, Avg",[3],1758 mm^3
same,"tumor volume, Avg",[4],3674 mm^3
same,"tumor volume, Avg",[5],4080 mm^3
same,percentage inhibition of tumor growth as compared to controls,day 21,54.7%
D-Phe-Cys-Tyr-D-Trp-Orn-Deg-Pen-Thr-NH2 [SEQ ID NO: 2],"tumor volume, individual animal","animal IV, day 0",0 mm^3
same,"tumor volume, individual animal","animal IV, day 9",480 mm^3
same,"tumor volume, individual animal","animal IV, day 13",1254 mm^3
same,"tumor volume, individual animal","animal IV, day 18",1965 mm^3
same,"tumor volume, individual animal","animal IV, day 21",491 mm^3
same,"tumor volume, individual animal","animal V, day 0",0 mm^3
same,"tumor volume, individual animal","animal V, day 9",678 mm^3
same,"tumor volume, individual animal","animal V, day 13",2196 mm^3
same,"tumor volume, individual animal","animal V, day 18",5240 mm^3
same,"tumor volume, individual animal","animal V, day 21",4839 mm^3
same,"tumor volume, individual animal","animal VI, day 0",0 mm^3
same,"tumor volume, individual animal","animal VI, day 9",806 mm^3
same,"tumor volume, individual animal","animal VI, day 13",2333 mm^3
same,"tumor volume, individual animal","animal VI, day 18",4453 mm^3
same,"tumor volume, individual animal","animal VI, day 21",6250 mm^3
same,"tumor volume, Avg",[1],0 mm^3
same,"tumor volume, Avg",[2],654 mm^3
same,"tumor volume, Avg",[3],1927 mm^3
same,"tumor volume, Avg",[4],3886 mm^3
same,"tumor volume, Avg",[5],3860 mm^3
same,percentage inhibition of tumor growth as compared to controls,day 21,57.1%
